The first data set is described as follows: in vitro. The following applies: human, hela cells, % viability.
For `CC(C)NC(=O)N1CCC[C@@H](O)[C@H](NC(=O)c2ccc(OCc3ccccc3)cc2)C1` [CBK289063], the viability at 28.5 h, 10 µM turned out to be 106%.
With `O=C(Nc1nnc(-c2ccccc2)o1)C1COc2ccccc2O1` (stereo not drawn) [CBK287596], the viability at 28.5 h, 10 µM amounted to 103%.
Regarding `CS(=O)(=O)N1CCC(Oc2nccnc2OCc2ccc(Cl)c(Cl)c2)CC1` [CBK144910], the viability at 28.5 h, 10 µM came out at 90.5%.
As for `O=C(NCCN1CCC(O)(c2cccc(F)c2)CC1)c1cccs1` [CBK282450], the viability at 28.5 h, 10 µM stood at 112%.
Regarding `CC(NC(=O)Cn1c(=O)oc2ccc(Cl)cc21)C1CC2CCC1C2` (stereo not drawn) [CBK281636], the viability at 28.5 h, 10 µM was found to be 87.7%.
As for `Cc1cc(=O)c2ccccc2n1CC(=O)N(C)CC1CCCCO1` (stereo not drawn) [CBK306960], the viability at 28.5 h, 10 µM was found to be 94.4%.
Still for that read-out and setting: then `CC(C)C[C@H](NC(=O)NCCN1CCOCC1)C(=O)O` [CBK286619], with 99.4%; and `CC(=O)Nc1cccc(C(=O)N2CCN(Cc3ccccn3)CC2)c1` [CBK304067], with 86.3%; and `CC(C)(CO)CCCn1cncc1-c1cnn(-c2ccccc2)c1` [CBK281922], with 96.9%.
For `CCC(=O)c1cc(F)c(N2CCN(C(=O)c3cccs3)CC2)cc1C` [CBK033892], the viability at 28.5 h, 10 µM is 104%.
`COCCn1c(SCc2cn3cc(Br)ccc3n2)nc(C)c1C` [CBK305704]: the viability at 28.5 h, 10 µM is 83.1%.
Turning to `COc1cccc(CNc2cccc(C(=O)O)c2)c1OCc1ccc(Cl)cc1Cl` [CBK074424], the viability at 28.5 h, 10 µM turned out to be 91.3%.
Turning to `O=c1[nH]c2ncc(-c3ccsc3)nc2n1CC1CCOCC1` [CBK064293], the viability at 28.5 h, 10 µM turned out to be 86.3%.
Still for that read-out and setting: the result for `O=C(c1cccnc1)N1CCN(S(=O)(=O)c2ccc([N+](=O)[O-])cc2)CC1` [CBK264300] reads 92.5%; that for `Cc1ccc(-c2nn(CCC#N)cc2C(=O)N2CCCC2)cc1C` [CBK305974], 86.8%; that for `COC(=O)C1=C(C)N=c2s/c(=C/c3ccc(OC)c(OC(C)=O)c3)c(=O)n2C1c1cccs1` (stereo not drawn) [CBK077753], 88.3%.
On the same count and under the same terms, the result for `COc1ccccc1NC(=O)Cn1c(=O)oc2cc(Cl)ccc21` [CBK269344] reads 94.6%.
Consider `O=C(NCc1cccs1)c1ccccc1-n1cccc1` [CBK149584], for which the viability at 28.5 h, 10 µM amounted to 92%.
Take `CN(CC(=O)N1CCC[C@@H]2[C@H]1C/C=C/Cc1ccccc1OCC(=O)N2C)Cc1ccccn1` [CBK292078]: the viability at 28.5 h, 10 µM was 91.5%.
The same measure, in the same setting: the result for `O=C(c1ccco1)N1CCN(c2cc(-c3ccc(OCc4ccccc4)cc3)ncn2)CC1` [CBK037844] reads 97.6%; that for `C[C@H]1[C@@H]2[C@@H](O)C([C@H](C)C(=O)N3CCCCC3)CC[C@@]2(C)CC[C@@H]1NC(=O)C1CC1` (stereo partly drawn) [CBK289446], 106%.
For the compound `CCN1CCCC1CNC(=O)c1cc(Br)cnc1N1CCOCC1` (stereo not drawn) [CBK076213], the viability at 28.5 h, 10 µM came to 87.1%.
Same read-out and setting: the result for `Cc1ccc(S(=O)(=O)Nc2sccc2C(=O)N2CCN(C)CC2)cc1` [CBK042264] reads 89.3%; that for `CC(=O)c1cccc(-c2ccc3c(c2)C(=O)NC2(CCN(C(=O)OC(C)(C)C)CC2)O3)c1` [CBK131969], 95.4%; that for `O=C(Nc1ccc2c(c1)OCO2)N1CCN(c2ccc(F)cc2)CC1` [CBK270332], 86.3%.
The same measure, in the same setting: the result for `O=C(O)C1Nc2ccc(Oc3ccccc3)cc2C2C=CCC12` (stereo not drawn) [CBK286542] reads 80.8%.
`O=C(O)C1C2C=CC3(CN(c4ccccc4)C(=O)C13)O2` (stereo not drawn) [CBK286992]: the viability at 28.5 h, 10 µM was 87.4%.
As to `COc1ccc2c(c1)N1CCCN=C1N2C` [CBK011358C], the viability at 28.5 h, 10 µM was 90.8%.
`O=C(Nc1ccccn1)Nc1ccccn1` [CBK015518]: the viability at 28.5 h, 10 µM was determined as 95.5%.
With `Fc1ccc(CNc2cncc(-c3cc4ccccc4o3)n2)cc1` [CBK066005], the viability at 28.5 h, 10 µM is 122%.
For `Cc1cc(C(=O)N2CCc3c(sc4ncnc(N)c34)C2)c(C)s1` [CBK304980], the viability at 28.5 h, 10 µM came out at 88.5%.
Same read-out and setting: then `CC(=O)N(C)c1nc(-c2ccccc2C)ccc1C(=O)NC1CCCCC1` [CBK106333], with 96.9%.
Regarding `COc1ccc(-c2ccc(OC3CCNCC3)cc2)c(OC)c1` [CBK093816T], the viability at 28.5 h, 10 µM came out at 91.2%.
For the compound `O=C1NC(=O)C(CCCCN2CCC[C@@H]2CN2CCCC2)N1` (stereo partly drawn) [CBK149110], the viability at 28.5 h, 10 µM came to 93.4%.
On the same count and under the same terms, then `CCOCCn1cnc2sc(C(=O)Nc3cccc(Cl)c3)c(C)c2c1=O` [CBK071854], with 91.8%; and `C(=N\c1cccc2c(/N=C/c3c[nH]c4ccccc34)cccc12)/c1c[nH]c2ccccc12` [CBK260887], with 95.8%; and `O=C(O)CCn1c(C2CCCCC2)nc2ccccc21` [CBK111480], with 86.2%.
As for `Cc1ccc(C=C(c2ccccc2)c2nc3sc(C(=O)O)c(C)c3c(=O)[nH]2)s1` [CBK295638], the viability at 28.5 h, 10 µM is 100%.
With `Cc1ccc2nc(-c3ccccc3)c(CN3CCCC3)c(O)c2c1` [CBK264736], the viability at 28.5 h, 10 µM is 106%.
Turning to `COCc1cc(C[C@@H]2C[C@H](NC(=O)C(C)(C)C)C2(C)C)no1` [CBK289251], the viability at 28.5 h, 10 µM was determined as 81.3%.
For the compound `Cc1nc(-c2cccs2)cc([C@H]2CN3CC[C@H]2C[C@@H]3CNC(=O)c2ccco2)n1` [CBK289127], the viability at 28.5 h, 10 µM was 86.9%.
Regarding `O=C(Cc1coc2ccc3ccccc3c12)NNC(=O)c1ccccc1[N+](=O)[O-]` [CBK268763], the viability at 28.5 h, 10 µM is 90.6%.
Still for that read-out and setting: then `Cc1ccc([N+](=O)[O-])cc1S(=O)(=O)n1ccc2c(N3CCNCC3)nccc21` [CBK059068C], with 96.5%; and `Cc1ccc(C2=CCN(S(=O)(=O)c3ccc(F)cc3)CC2)o1` [CBK283571], with 93%.
On to `CCCS(=O)(=O)n1c(=O)n(CC(=O)c2ccccc2OC)c2ccccc21` [CBK106498], for which the viability at 28.5 h, 10 µM turned out to be 93.1%.
`COC(=O)CCc1ccc(S(=O)(=O)N2CCCN(Cc3cc(F)cc(F)c3)CC2)cc1` [CBK062990]: the viability at 28.5 h, 10 µM was 106%.
On to `Cc1cc(=O)n2c3c(cc(S(=O)(=O)NC4CC4)cc13)CCC2` [CBK307572], for which the viability at 28.5 h, 10 µM was 87%.
In the case of `O=C(CN1CCCC2(CCN(C(=O)Cc3c[nH]c4ccccc34)C2)C1)Nc1ncccn1` (stereo not drawn) [CBK132048], the viability at 28.5 h, 10 µM came to 86.7%.
Regarding `O=S(=O)(c1ccc(F)cc1F)N1CCN(Cc2ccc3c(c2)OCO3)CC1` [CBK074744], the viability at 28.5 h, 10 µM was found to be 91.7%.
As for `COc1cc(CNC(=O)N(CCC#N)C2CCCCC2)cc(OC)c1OC` [CBK156359], the viability at 28.5 h, 10 µM worked out at 98.1%.
The same measure, in the same setting: then `CCOC(=O)c1cn(CC#N)c2cc(F)c(F)cc2c1=O` [CBK304211], with 98.3%; and `O=S(=O)(c1ccc(Cl)s1)N1CCN(c2ccccc2Cl)CC1` [CBK045098], with 98%; and `O=C(Nc1ccc2c(c1)C1C=CCC1C(C(=O)O)N2)c1ccc(Cl)cc1Cl` (stereo not drawn) [CBK112584], with 105%.
Still for that read-out and setting: the result for `O=C(O)CCCN1C(=O)/C(=C/c2ccccc2[N+](=O)[O-])SC1=S` [CBK262801] reads 90.4%; that for `CCN(CC)S(=O)(=O)c1ccc(Nc2nc3ccc(Cl)cc3n3cnnc23)cc1` [CBK268259], 87.6%.
As for `CC(=O)c1ccc(-c2cc(F)cc3c2OC(CN)C3)s1` (stereo not drawn) [CBK307513], the viability at 28.5 h, 10 µM amounted to 54.2%.
For `O=C(N[C@H]1CCN2C(=O)c3cc(-c4cccs4)ccc3NC(=O)[C@@H]2C1)c1cnccn1` [CBK289559], the viability at 28.5 h, 10 µM was 106%.
As for `O=C(O)Cc1ccc(-c2ccccc2)cc1` [CBK011660], the viability at 28.5 h, 10 µM came to 104%.
On the same count and under the same terms, then `COc1ccccc1-c1nc2ccccn2c1CO` [CBK173210], with 113%; and `O=S(=O)(Nc1ccc(N2CCNCC2)nc1)c1ccc(F)cc1F` [CBK000022C], with 110%.
In the case of `CN(Cc1ccc2ncccc2c1)C(=O)CC1CCN(CCc2ccccc2)CC1` [CBK286261], the viability at 28.5 h, 10 µM turned out to be 108%.
The same measure, in the same setting: then `Cc1ccc(C)c2[nH]c(=O)c(CN(CCN3CCOCC3)Cc3nnnn3C3CCCCC3)cc12` [CBK108116], with 85.3%; and `Cn1ccc(C(=O)NC(Cc2ccsc2)c2cccnc2)n1` (stereo not drawn) [CBK285117], with 107%.
Consider `O=C(Cn1nc(C(=O)O)c2ccccc2c1=O)NCc1ccc(Cl)cc1Cl` [CBK295320], for which the viability at 28.5 h, 10 µM turned out to be 85.4%.
For `Cc1ccc(S(=O)(=O)CC(=O)Nc2nc3ccc(C)cc3s2)cc1` [CBK287705], the viability at 28.5 h, 10 µM was found to be 89.8%.
As for `CS(=O)(=O)c1ccc(Nc2cncc(N3CCC(Sc4ccccn4)CC3)c2C#N)cc1` [CBK131843], the viability at 28.5 h, 10 µM amounted to 85.2%.
As to `Cc1onc(-c2ccccc2)c1CNC(=O)c1cscn1` [CBK144089], the viability at 28.5 h, 10 µM came out at 97.1%.
The same measure, in the same setting: then `Cc1cnn(CC2CC2)c1NC(=O)Cc1csc(N2CCCC2=O)n1` [CBK304940], with 92.4%; and `Cc1cccnc1C1(O)CCN(C(=O)Cc2ccccc2F)CC1` [CBK283617], with 97.8%; and `CCn1c(CN2CCOCC2)nnc1SCC(=O)Nc1cccc(Br)c1` [CBK269740], with 85.6%.
Take `O=C(Nc1cccc([N+](=O)[O-])c1)c1cc(S(=O)(=O)N2CCCCC2)ccc1Cl` [CBK261367]: the viability at 28.5 h, 10 µM was found to be 93.9%.
Consider `CC1(C)OCC2(CCN(C(C)(C)C)CC2)O1` [CBK038298], for which the viability at 28.5 h, 10 µM worked out at 93.2%.
The same measure, in the same setting: the result for `O=C(O)CC(Cc1ccc(Br)cc1)C(=O)Nc1ccccc1` (stereo not drawn) [CBK262714] reads 96.2%; that for `O=C(OCc1ccccc1)N1CCC(C2OCc3cc(-c4ccc(C(=O)N5CCCC5)cc4)ccc3O2)CC1` (stereo not drawn) [CBK153260], 108%.

Staying with this data set, now noted: human, hela cells, % viability, bulk resorufin, single well.
As to `Cc1noc(C)c1NC(=O)N1CCC2(CC1)OCc1cc(F)ccc1O2` [CBK060721], the viability at 28.5 h, 10 µM was 97.8%.
With `Cc1cc(Cl)c(OC(=O)NC2CCCCC2)cc1C` [CBK022948], the viability at 28.5 h, 10 µM was found to be 90.1%.
Same read-out and setting: the result for `Cc1ccc(OP(=O)(NCCN2CCOCC2)Oc2ccc(C)cc2)cc1` [CBK261802] reads 107%; that for `O=C1NC(=S)N(Cc2ccco2)C(=O)/C1=C\c1ccc(-c2ccc(Cl)c(C(=O)O)c2)o1` [CBK265584], 90.1%.
